Results taken from ChEMBL document CHEMBL3507680, “University of Dundee, Gates Library screen for HepG2 cell viability”.

test: Human HepG2 cell viability assay in 384 well format; format: toxicity, cell-based; parameters: dose 125 nL, time 70.5 hour; concentration not given beside the values; settings: HepG2 cells, read-out: Inhibition

Compound | cytotoxicity at 70.5 h [%]
CCn1nc2c(cc1=O)CN(c1ncnc3ccsc13)CC2 | -7.93
CCc1nnc(C2Cc3ccccc3CN2Cc2cc(C)on2)o1 (centres undefined) | -2.94
O=c1c(S(=O)(=O)N2CCCC2)cccn1Cc1ccccc1Cl | -6.09
CSc1ccc2c(C)cc(N[C@@H](C)CO)nc2c1 | 23.3
COCCN(C)C(C(=O)O)c1ccc2ccccc2c1 (centres undefined) | 6.21
CC(C)(C)n1ncc(NCc2ccccc2)c(Cl)c1=O | 22.2
O=C(Nc1nccs1)C1CCN(Cc2cccc3c2OCCO3)CC1 | 6.98
CN(C)C(=O)[C@H]1CC[C@@H]2[C@@H](CCN2Cc2ccccn2)O1 | 0.127
Cc1noc(C)c1-c1cnc(CC2CCN(C(=O)c3cc[nH]n3)C2)cn1 (centres undefined) | -12
CC(C(=O)N1CCc2sccc2C1)N1CCC(S(N)(=O)=O)CC1 (centres undefined) | -4.51
Cc1occc1C(=O)N1Cc2nccn2CC(CN(C)C)C1 (centres undefined) | -8.13
CCc1cc(NCC(N)=O)nc(N2CCCCC2)n1 | -8.82
Cc1ccc(N2CCCC(NCc3ccc4c(c3)OCCO4)C2)nn1 (centres undefined) | 1.38
Cc1ccc(CNC(=O)C2CCN(C(=O)c3ccccc3)CC2)n1C | -8.06
COCCC(=O)N1CC[C@@H](N(C)C)[C@@H]1Cc1ccccc1 | -3.88
CC(C)(C)C(=O)N1CCCC1c1nccnc1Cl (centres undefined) | -8.54
CC1CCCCN1C(=O)c1nc2c(n1C(C)C)CCN(C)C2 (centres undefined) | -14
NC(=O)C1(CCCc2ccccn2)CCCN(CCO)C1 (centres undefined) | -4.87
CN(C)CCCNC(=O)CNC(=O)N1CCc2c([nH]c3ccccc23)C1 | 35.2
Cc1cc(F)ccc1-n1cc(O)c(C(N)=O)n1 | -19
COc1cc(C)ccc1OCC(=O)NS(=O)(=O)c1cccnc1 | -3.71
CC(C)OCCN1CCC(Nc2ncc(Br)cn2)CC1 | -7.14
Cc1nc(CN2CCC3(CCN(Cc4nccn4C)CC3)C2=O)cs1 | -7.58

Compound | cytotoxicity at 70.5 h [%]
Cc1ccc(CNC(c2cccc(F)c2)c2nccn2C)o1 (centres undefined) | -3
COC(=O)N1CCc2ccccc2C1C(=O)NCc1ccccn1 (centres undefined) | 0.0153
CCCc1nnc(SCC(=O)Nc2cc(C(C)(C)C)nn2C)[nH]1 | -13.2
CCc1ncncc1C(=O)N1CCCC(n2nc(C)nc2C)C1 (centres undefined) | -1.23
Cn1ccc2c(C(=O)N3CCC4(CCOC4)C3)cccc21 (centres undefined) | 23.5
NC(=O)NC(CC(=O)NCCc1cccc(F)c1)c1cccs1 (centres undefined) | 17
CCc1ncc2c(n1)CN(c1nnc(C)c(C)c1C#N)CC2 | 5.31
CC(C)NC(=O)C1Cc2nc(-c3ccsc3)sc2N1CC1CC1 (centres undefined) | -6.43
CC(=O)N1CCC2(CC1)c1ncc(-c3cccnc3)n1CCN2C | 0.401
Cc1sc(CN)nc1-c1ccc(Cl)cc1 | 4.14
CN(Cc1ccccn1)C(=O)c1ccc2c(c1O)OC(C)(C)C2 | 11.6
Cc1cc(NC2CC3(CCN(Cc4csc(C)n4)C3)C2)ncn1 (centres undefined) | -9.59
CC(C)(C)c1noc(CN2CCN(C(=O)c3ccco3)CC2)n1 | 14.9
CS(=O)(=O)CCCC(=O)N1CCN(CC2CC2)c2ccccc21 | -7.11
Cc1cn(CC(=O)NC2CCN(S(C)(=O)=O)CC2)c2ccccc12 | -4.04
CC(C)CN1C(=O)C2(CCN(Cc3cccs3)C2)c2ccccc21 (centres undefined) | -16.4
O=C1[C@H]2CN(Cc3ccoc3)C[C@H]2CN1Cc1ccncc1 | -1.61
COc1ccc(C(O)CN2CC(n3nc(C)cc3C)C2)cc1 (centres undefined) | 1.87
Cn1nnnc1SC1CCc2ccccc2NC1=O (centres undefined) | -24.7
CCc1nnc2n1CCN(C(=O)c1cc3c(F)cccc3[nH]1)C2 | -6.74
CN(CCc1ccccn1)S(=O)(=O)N1CCCC1c1ccco1 (centres undefined) | -10.8
Clc1ccccc1OC1CCN(CC2CCOC2)CC1 (centres undefined) | 3.25
CCc1c(C)nn(C)c1NC(=O)N1CCCOC(Cn2cccn2)C1 (centres undefined) | -4.64

Compound | cytotoxicity at 70.5 h [%]
CC(C)n1nc(CN2CCCC2)c2c1CN(CC1CC1)CC2 | -1.54
COc1c(CNCc2ccc3c(c2)OCCO3)c(C(C)C)nn1C | -6.06
CN(C)CCNC(=O)c1ccc(OC2CCN(C(=O)CO)CC2)c(Cl)c1 | -7.98
COCCCNC(=O)C1(NC(=O)c2ccc3[nH]ncc3c2)CCCC1 | -15.2
CCN(CC)c1ccc(-c2ccc(C)c(S(N)(=O)=O)c2)nn1 | -8.22
Cc1cnn(CCNc2nc(C)cc(N(C)C)n2)c1 | 11.4
Cc1nc(C)n(CC(=O)N2CCc3ncc(Cl)cc3C2)n1 | 7.22
COCCN1CCN(Cc2csc(-c3cnn(C)c3)n2)CC1 | -7.26
CC(C)c1noc(OCc2cccc(C#N)c2)n1 | -11.8
Cc1ccc(C(=O)N2CCCC3(C2)C(=O)N(C)c2ccccc23)c(=O)[nH]1 (centres undefined) | -10.2
CCCn1[nH]cc/c1=N\C(=O)CN1CCCC1c1c(C)nn(C)c1C (centres undefined) | 16.9
COc1c(C2CCCN2CC(=O)Nc2nc(C)cs2)c(C)nn1C (centres undefined) | 3.79
Cn1cnc2c1C(COCC1CC1)CN(C(=O)c1cscn1)C2 (centres undefined) | -5.14
O=S(=O)(c1cccc(F)c1)N1CC[C@H]2[C@H]1CCN2c1ncccn1 | 1.7
O=C(c1cccc2ccnn12)N1CCC[C@H]1CN1CCCC1 | 6.92
COc1ccc(CN2CCO[C@H]3CN(C4CCC4)CC[C@H]3C2=O)cc1 | -0.486
CN(C)CC(=O)N1CCc2sc(C(=O)N3CCN(C)CC3)cc21 | -2.73
Cn1cc(CNc2cnn(CCO)c2)c(-c2ccncc2)n1 | -5.07
O=C(NC[C@H]1CCCO1)c1ccc(S(=O)(=O)N2C[C@@H]3C[C@H]2CN3)cc1 | -1.62
CCn1c(CN(C)CC(=O)N(C)C)nc2c(F)cccc21 | -11.7
CCNc1ncc(C(=O)Nc2nnc(N3CCCCC3)[nH]2)s1 | -2.41
Cc1cccc(-c2noc(C)c2C(=O)NC2CCCOC2)c1 (centres undefined) | -10.9
CN(C)CCOCC1CN(C(=O)c2ccsc2)Cc2ccnn2C1 (centres undefined) | -5.3

Compound | cytotoxicity at 70.5 h [%]
CC(C)(C)OC(=O)N1CSC[C@@H]1C(=O)NCc1ccncc1 | -2.13
CCn1c(CN2CCOC(Cn3cncn3)C2)nc2cc(F)ccc21 (centres undefined) | 0.647
NC(=O)NC(CC(=O)N1CCc2sccc2C1)c1cccc(Br)c1 (centres undefined) | -18.1
Cc1cccc(O[C@H]2COCCN(Cc3sc(C)nc3C)C2)n1 | 10.9
CO[C@@H]1CC[C@H]2[C@H]1OCCN2C(=O)COc1ccc(F)cc1 | -16.9
Cc1ccc(C)c(OC2CCN(C(=O)CNc3ccccc3Cl)CC2)c1 | 24.6
CCc1nc(CCNS(=O)(=O)c2cccc(C(=O)N(C)CC)c2)cs1 | -16
COC(=O)CNC(=O)C1(N(C)Cc2ccccc2)Cc2ccccc2C1 | -8.63
O=c1cc(CN(CCO)C2CC2)nc2ccc(Br)cn12 | -4.99
COc1ccc(C(=O)C2CCCN(CCc3ccccc3)C2)c(OC)c1 (centres undefined) | 18.4
O=C(c1cccnc1)N1CCN(c2ccc(-n3cccc3)nn2)CC1 | 0.575
NS(=O)(=O)CCN1CCOC(c2ccsc2)C1 (centres undefined) | 1.05
O=C(NC1(c2nnn(CCO)n2)CCCC1)c1ccccc1 | -1.16
CN(C)Cc1nc(-n2cnc(C(=O)NC3CCCC3)c2)n2ccccc12 | -3.17
N#Cc1cccnc1NCc1cccnc1N1CCC(C(N)=O)CC1 | -9.67
COCC(=O)N1CCCC1c1cccc(Cc2ccccc2F)n1 (centres undefined) | -1.54
O=C(N1CCCCC1)N1CCN(CC(O)c2ccccc2)CC1 (centres undefined) | -3.61
O=c1oc(-c2ccc(F)cc2)nn1CN1CCCCC1 | -18.4
CCOc1ccc(CN2C(=O)CC3(CCCC3)C2=O)nc1 | 17.6
COc1cccn(CC(=O)N(C)CCCOc2c(C)cccc2C)c1=O | 29.5
COc1cc(C(=O)N2CC(Oc3ccccc3Cl)C2)ccn1 | -3.47
CN(CCC(O)c1ccccc1)c1cc(C2CC2)ncn1 (centres undefined) | -6.59
Cn1ncc2c(N3CCS(=O)(=O)CC3)nc(-c3cccnc3)nc21 | 6.33

Compound | cytotoxicity at 70.5 h [%]
CNS(=O)(=O)CCNC(=O)c1coc(COc2ccc(F)cc2)n1 | -4.33
O=C(NC1CC(=O)N(C2CC2)C1)c1ccc(Cl)s1 (centres undefined) | -8.35
CC(C)c1noc(C(C)N2CCN(c3ccc(C#N)cn3)CC2)n1 (centres undefined) | -15.5
Cc1ccccc1CN(CCN(C)C)Cc1ncc[nH]1 | -7.18
N#Cc1ccc(N2CCCC3(CCN(c4cccnc4)CC3)C2)cc1 | 51.2
N#Cc1cccc(CN2CC[C@@H]3[C@@H]2CC(=O)N3CCN2CCCC2)c1 | -9.81
O=C(O)c1ccnc(-c2ccnc(COc3cccc(F)c3)n2)c1 | 16.7
O=C(O)C1(n2ccnc2)CCN(Cc2ccc3occc3c2)CC1 | -5.96
Cc1cccc(=O)n1CCCNc1nc(N(C)C)nc2c1CCNC2 | 18.8
Cc1c[nH]c(CN2CCCCC2CCN(C)C)c(C)c1=O (centres undefined) | -10.5
CCN1N=C(C(=O)N2CCCC(c3noc(C)n3)C2)CCC1=O (centres undefined) | 22.2
COc1ccc(C(=O)N2Cc3cc(C)ccc3OCC2CN(C)C)cc1 (centres undefined) | 3.28
CC(c1ccon1)N(C)C(=O)C1CCN(C(=O)C2CCC2)CC1 (centres undefined) | 25.3
Cc1cc(C)n(CCCNC(=O)[C@@H](C)NC(=O)OC(C)(C)C)n1 | -14.4
Fc1ccc(N2CCCN(c3ccc(Cn4ccnc4)cn3)CC2)cc1 | 2.18
CC(C)NC(=O)CS(=O)(=O)c1cc2c(cc1Cl)OCCO2 | -3.28
CC(=O)c1ccc(NC(=O)C(C)Cn2cc(Br)cn2)cc1 (centres undefined) | -5.47
O=C(C1CCOC1)N1CCN(Cc2ccncc2)c2ncccc2C1 (centres undefined) | -9.12
CCS(=O)(=O)NCc1nc(C)cc(N2CCOCC2)n1 | -6.72
CC(C)C1CN(C(=O)c2cn3cc(Cl)cnc3n2)CCCN1CC1CC1 (centres undefined) | 20.2
CC(=O)c1cc(CC(=O)NCc2ccc(CN(C)C)cc2)cs1 | -7.31
COc1ccc(COCC(O)CNC(=O)c2ccncc2)cc1 (centres undefined) | -1.56
